Assay results taken from paper PMC8376047, “Complexation of uranyl (UO2)^2+ with bidentate ligands: XRD, spectroscopic, computational, and biological studies” (PLoS ONE, 2021).

Legend:
Test in all cases: UV-Vis absorption titration (Kb) and tryptophan fluorescence quenching (KSV […])
Format in all cases: binding
[1] = molecular target: T1, human serum albumin (HSA) (Homo sapiens, UniProt P02768)
T1 construct: gene ALB

[2] = molecular target: T1, human serum albumin (HSA); remark: listed apart in the source
[3] = molecular target: T1, human serum albumin (HSA); remark: listed apart in the source

T1 sequence (P02768 25-609): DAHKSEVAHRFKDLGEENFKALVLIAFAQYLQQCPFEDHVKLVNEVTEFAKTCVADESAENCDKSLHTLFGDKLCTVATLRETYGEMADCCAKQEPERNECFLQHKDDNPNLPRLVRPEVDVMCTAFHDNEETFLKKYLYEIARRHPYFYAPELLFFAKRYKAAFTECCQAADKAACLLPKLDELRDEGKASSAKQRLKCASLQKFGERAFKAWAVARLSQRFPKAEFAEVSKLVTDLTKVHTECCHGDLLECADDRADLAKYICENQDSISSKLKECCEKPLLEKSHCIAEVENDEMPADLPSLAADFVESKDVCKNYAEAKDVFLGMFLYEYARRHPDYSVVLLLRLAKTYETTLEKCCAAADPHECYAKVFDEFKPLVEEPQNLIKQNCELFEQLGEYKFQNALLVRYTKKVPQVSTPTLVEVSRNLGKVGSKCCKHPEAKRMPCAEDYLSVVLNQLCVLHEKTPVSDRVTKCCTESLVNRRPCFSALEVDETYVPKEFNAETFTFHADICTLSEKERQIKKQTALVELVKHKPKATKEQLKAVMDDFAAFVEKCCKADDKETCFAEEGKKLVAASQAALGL

[(UO2)(OAc)2(CMZ)]
UV-Vis absorption titration (Kb) and tryptophan fluorescence quenching (KSV 7.2×) [1]: 2.10×10^5

[(UO2)(OAc)2(SCZ)]
UV-Vis absorption titration (Kb) and tryptophan fluorescence quenching (KSV 9.46) [2]: 7×10^4

[(UO2)(OAc)2(MP)]
UV-Vis absorption titration (Kb) and tryptophan fluorescence quenching (KSV 9.75) [3]: 2.26×10^5
